Values of other authors in patent US9820936B2, “Oral controlled release pharmaceutical compositions of Bepotastine” (LUPIN LIMITED, priority 2011, dated 2017).

Settings: background statement

In the case of `O=C(O)CCCN1CCC(O[C@@H](c2ccc(Cl)cc2)c2ccccn2)CC1` [Bepotastine, (+)-(S)-4-[4-[(4-Chlorophenyl)(2-pyridyl)methoxy]piperidino]butyric acid], the half life is listed as 2.4 ± 0.1 h.
